Measured values: US20210251237A1, “PLATFORM FOR DEVELOPING SOIL-BORNE PLANT PATHOGEN INHIBITING MICROBIAL CONSORTIA” (priority 2018, published 2021)
“Also recorded” adds a separate entry of the source. Where two headings read alike, the source gives them in different places.

Experiments:
[1] = tested on: Rhizoctonia solani; assay: Pathogen suppressive activity plate assay (zone of inhibition); format: cell-based; settings: for mean inhibitory zone size: Table 4
[2] = tested on: Sclerotinia sclerotiorum; assay: as above; format: cell-based; settings: for mean inhibitory zone size: Table 4
[3] = tested on: Fusarium oxysporum; assay: as above; format: cell-based; settings: for zone of inhibition: Table 1; for mean inhibitory zone size: Table 4
[4] = tested on: Fusarium graminearum; format: cell-based; settings: for zone of inhibition: Table 1; for mean inhibitory zone size: Table 4
[5] = tested on: Phytophthora medicaginis; assay: Pathogen suppressive activity plate assay (zone of inhibition); format: cell-based; settings: for zone of inhibition: Table 1; for mean inhibitory zone size: Table 4
[6] = tested on: Phytophthora sojae; assay: as above; format: cell-based
[7] = tested on: Pythium ultimum var. sporangiferum; assay: as above; format: cell-based
[8] = tested on: F. culmorum; assay: as above; format: cell-based; settings: Table 1; pathogen isolate P61
[9] = tested on: Fusarium virguliforme; assay: as above; format: cell-based; settings: Table 4
[10] = tested on: clinical antimicrobials (antibiotic discs); assay: Antibiotic disc resistance/susceptibility assay of microbial isolates; format: cell-based
[11] = tested on: Wheat, alfalfa, corn, and soybean plants; assay: Plant growth promotion, greenhouse (FIG. 27); format: in vivo; settings: plant biomass
Method: (§1) Wheat, alfalfa, corn, and soybean plants were evaluated for the growth response to microbial inoculants in growth chamber and greenhouse conditions. For each crop, containers (6.5 cm diameter x 25 cm long) were filled with steamed (sterile) greenhouse soil mix (500 ml) and planted with two (corn, soy, wheat) or three (alfalfa) seeds. Crop varieties were: SOY: AG 0832; CORN: Viking, WHEAT: Prosper, ALFALFA: Saranac. Seeds were inoculated with microbial isolates from the enriched microbial library immediately after planting (2 ml of water agar containing the inoculant per seed, 1×10^11 cells inoculant/ml). Control plants were allowed to grow without the microbial inoculants Plants were grown in the greenhouse and harvested at 3 weeks (corn), 4 weeks (wheat), 4.5 weeks (soybean) and 5 weeks (alfalfa). At harvest, the roots were carefully washed, and above- and belowground fresh weights were recorded (g). Plants were subsequently placed in paper bags and maintained in the 95° F. drying oven for 3 days, after which dry weights were also recorded. Plant weights were compared between inoculated and non-inoculated treatments.
(§2) For each crop (wheat, alfalfa, soybean, corn), a container (6.5 cm dia×25 cm long; approximately 500 cc of soil) was filled with steamed (sterile) greenhouse soil mix and planted with two of each seed (corn, soy, wheat) or three seeds (alfalfa) at a 0.5 inch depth. Crop varieties were: SOY: AG 0832; CORN: Viking, WHEAT: Prosper, ALFALFA: Saranac. Wheat, soybean and corn seeds (but not alfalfa) were surface sterilized before planting. Seeds were not treated with any fungicides or other chemicals. All crops were thinned to one seed per container following emergence. Ten replicate containers were planted for each inoculant and for the non-inoculated control.
(§3) Streptomyces cultures GS1 and PS1 were grown for 7-10 days on plates containing oatmeal agar (OA), and collected in 20% glycerol stocks. Stocks were serially diluted and plated on water agar (WA) for quantification. Stocks were then diluted to approximately 1×10^11 colony-forming units per ml.
(§4) For each inoculant, 2 ml of stock was distributed over the seeds at planting. Seeds and containers were watered when needed. Plants were incubated in the greenhouse and harvested at 3 weeks (corn), 4 weeks (wheat), 4.5 weeks (soybean) and 5 weeks (alfalfa). No additional nitrogen was added. At harvest for each crop, the roots were carefully washed, and above- and belowground fresh weights were recorded (g). Plants were subsequently placed in paper bags and maintained in the 95° F. drying oven for 3 days, after which dry weights were also recorded. Plant weights were compared between inoculated and non-inoculated treatments.

[12] = tested on: alfalfa; assay: Plant growth promotion, greenhouse (FIG. 27); format: in vivo
Method: as §1, §2, §3, §4

[13] = tested on: corn; assay: Plant growth promotion, greenhouse (FIG. 27); format: in vivo
Method: as §1, §2, §3, §4

[14] = tested on: soybean; assay: Plant growth promotion, greenhouse (FIG. 27); format: in vivo
Method: as §1, §2, §3, §4

[15] = tested on: wheat; assay: Plant growth promotion, greenhouse (FIG. 27); format: in vivo
Method: as §1, §2, §3, §4

[16] = tested on: Phytophthora sojae; assay: Phytophthora sojae control on soybean, growth chamber; format: in vivo; settings: growth chamber trials
[17] = tested on: Phytophthora medicaginis; assay: Phytophthora medicaginis control on alfalfa, greenhouse; format: in vivo; settings: field soil naturally infested, 28 days, inoculated vs non-inoculated
Text: FIG. 7A-B. Inoculant included in this figure: GS1. FIG. 7A depicts the severity of disease on […]. The present figure was constructed utilizing methods from Example 9(F)(iii). […] Briefly, soils were inoculated with a liquid spore suspension of a single Streptomyces isolate at planting. Alfalfa seeds were planted into field soil that was naturally-infested with the pathogen Phytophthora medicaginis. After 28 days, plants were harvested for disease and biomass assessments.
Inoculum was prepared as described above, and used to inoculate seeds planted in field soil placed in sterile tins. Inoculation occurred immediately after planting. […] GS1 was thus shown to promote plant growth.

[18] = tested on: potato scab; assay: Potato field trials: percent scab control; format: in vivo; parameters: concentration or dose not given beside the values

Q: Which results are given for Streptomyces lydicus [GS1]?
A: inhibition of pathogen (in words) ([1]; P6 isolate of Rhizoctonia solani): inhibits; zone of inhibition ([1]; Table 1, pathogen isolate P6): 9.15 mm; mean inhibitory zone size ([1]; pathogen target isolate P5): 8.95 mm; mean inhibitory zone size ([1]; pathogen target isolate P6): 9.15 mm; mean inhibitory zone size ([1]; pathogen target isolate P12): 9.78 mm; zone of inhibition ([2]; Table 1, pathogen isolate P19): 8.63 mm; mean inhibitory zone size ([2]; pathogen target isolate P17): 16.8 mm; mean inhibitory zone size ([2]; pathogen target isolate P18): 12.8 mm; mean inhibitory zone size ([2]; pathogen target isolate P19): 8.63 mm; zone of inhibition ([3]; pathogen isolate P27): 0 mm; zone of inhibition ([3]; pathogen isolate P29): 0 mm; mean inhibitory zone size ([3]; pathogen target isolate P25): 2.15 mm; mean inhibitory zone size ([3]; pathogen target isolate P26): 9.38 mm; mean inhibitory zone size ([3]; pathogen target isolate P28): 0 mm; mean inhibitory zone size ([3]; pathogen target isolate P29): 0 mm; zone of inhibition ([4]; pathogen isolate P31): 8.63 mm; zone of inhibition ([4]; pathogen isolate P34): 16.28 mm; mean inhibitory zone size ([4]; pathogen target isolate P30): 14.58 mm; mean inhibitory zone size ([4]; pathogen target isolate P31): 8.63 mm; mean inhibitory zone size ([4]; pathogen target isolate P32): 11.5 mm; mean inhibitory zone size ([4]; pathogen target isolate P33): 13.13 mm; mean inhibitory zone size ([4]; pathogen target isolate P34): 16.28 mm; mean inhibitory zone size ([4]; pathogen target isolate P35): 11.03 mm; zone of inhibition ([5]; pathogen isolate P43): 4.53 mm; zone of inhibition ([5]; pathogen isolate P44): 10.45 mm; mean inhibitory zone size ([5]; pathogen target isolate P43): 4.53 mm; mean inhibitory zone size ([5]; pathogen target isolate P44): 10.45 mm; inhibition of pathogen (in words) ([6]; P52 isolate of Phytophthora sojae): does not; zone of inhibition ([6]; Table 1, pathogen isolate P52): 0 mm; mean inhibitory zone size ([6]; Table 4, pathogen target isolate P52): 0 mm; zone of inhibition ([7]; Table 1, pathogen isolate P58): 9.95 mm; mean inhibitory zone size ([7]; Table 4, pathogen target isolate P58): 9.95 mm; zone of inhibition [8]: 4.68 mm; mean inhibitory zone size ([9]; pathogen target isolate P20): 0 mm; mean inhibitory zone size ([9]; pathogen target isolate P21): 1.3 mm; mean inhibitory zone size ([9]; pathogen target isolate P22): 0 mm; mean inhibitory zone size ([9]; pathogen target isolate P23): 0 mm; Antibiotic resistance characteristics ([10]; Amoxicillin Clavulanate): R (R-resistant (0 inhibition zone)); Antibiotic resistance characteristics ([10]; Chloramphenicol): R (R-resistant (0 inhibition zone)); Antibiotic resistance characteristics ([10]; Erythromycin): S (S-susceptible (>10 mm)); Antibiotic resistance characteristics ([10]; Kanamycin): S (S-susceptible (>10 mm)); Antibiotic resistance characteristics ([10]; Novobiocin 5): MS (MS-moderately susceptible (6-10 mm)); Antibiotic resistance characteristics ([10]; Novobiocin 30): MS (MS-moderately susceptible (6-10 mm)); Antibiotic resistance characteristics ([10]; Penicillin): R (R-resistant (0 inhibition zone)); Antibiotic resistance characteristics ([10]; Rifampin): R (R-resistant (0 inhibition zone)); Antibiotic resistance characteristics ([10]; Streptomycin): S (S-susceptible (>10 mm)); Antibiotic resistance characteristics ([10]; Tetracycline): R (R-resistant (0 inhibition zone)); Antibiotic resistance characteristics ([10]; Vancomycin 5): MS (MS-moderately susceptible (6-10 mm)); Antibiotic resistance characteristics ([10]; Vancomycin 30): MS (MS-moderately susceptible (6-10 mm)); promotion of growth of inoculated vs non-inoculated plants [11]: statistically significant effect; fresh and dry weights [12]: significant enhancements; growth promotion ([12]; FIG. 27): promote the growth; fresh and dry weights [13]: not; dry weight [14]: significant increases; fresh and dry weights [15]: not; reduction of disease severity ([16]; soil infested with P. sojae): 93%; percent healthy plants ([16]; FIG. 7A): increased; disease [17]: significantly reduced; also recorded: reduced disease; plant biomass [17]: significantly increased; also recorded: significant increases; Percent Control (reduction in scab severity vs non-inoculated plots) ([18]; experiment BPP, disease on non-inoculated tubers 22.2): 33%; Percent Control (reduction in scab severity vs non-inoculated plots) ([18]; experiment BSCR, disease on non-inoculated tubers 16.2): 35%; Percent Control (reduction in scab severity vs non-inoculated plots) ([18]; experiment BSP, disease on non-inoculated tubers 24.3): 42%; Percent Control (reduction in scab severity vs non-inoculated plots) ([18]; experiment BWP, disease on non-inoculated tubers 26.7): 38%; Percent Control (reduction in scab severity vs non-inoculated plots) ([18]; experiment RPP, disease on non-inoculated tubers 15.6): 37%; Percent Control (reduction in scab severity vs non-inoculated plots) ([18]; experiment RSP, disease on non-inoculated tubers 8.8): 39%
